Assay type in all cases: cell-based
In experiment [1] the target is T1, human Nav1.7 channels stably expressed in HEK 293 cells (Homo sapiens, UniProt Q15858).
T1 construct: expressed in transfected cells; host or cells: HEK 293
The experiment can be described thus: IonWorks Quattro automated patch-clamp, inactivated state block. The following applies: IonWorks technique; read-out: Nav 1.7 potency. Here is the method:
(§1) For all electrophysiology experiments, offline analysis was used to correct for current rundown and to determine percent inhibition as a function of drug concentration. IC50 values were determined by fitting to the Hill equation.
(§2) Cell Based Assays for Nav 1.7 and Nav 1.5 Activity
(§3) Compounds were tested on human Nav1.7 and Nav1.5 channels stably expressed in HEK 293 cells. […] Cells were sealed on a planar substrate using the Population Patch […] (PPC) technology. Electrical access was obtained using both nystatin and amphotericin. A double-pulse protocol was used for the determination of IC50 values for inactivated state block. Nav1.7 and Nav1.5 expressing cells were voltage clamped at −100 mV and −110 mV, respectively. A depolarizing prepulse to −10 mV (Nav1.7) or −30 mV (Nav1.5) for 1000 ms followed by a 10 ms repolarization to −100 mV (Nav1.7) or −110 mV (Nav1.5) was given to generate fractional channel inactivation of 50%, followed by a 10 ms test pulse to −10 mV (Nav1.7) or −30 mV (Nav1.5) to measure peak current in control conditions and after compound addition. The following recording solutions were used (mM). External: 150 NaCl, 2 CaCl2, 5 KCl, 1 MgCl2, 10 HEPES, 12 Dextrose; internal: 120 CsF, 30 CsCl, 10 EGTA, 5 HEPES, 5 NaF, 2 MgCl2.
A general note: In patch-clamp work, channel activity is measured electrically.

The target of experiment [2] is T2, human Nav1.5 channels stably expressed in HEK 293 cells (Homo sapiens, UniProt Q14524).
T2 construct: expressed in transfected cells; host or cells: HEK 293
The description is as above. Conditions: IonWorks technique. Here is the method:
as §1, §2, §3

For experiment [3], the target named is T1, human Nav1.7 channels stably expressed in HEK 293 cells. The experiment can be described thus: PatchXpress 7000 automated patch-clamp, inactivated state block. The following applies: PatchXpress technique; read-out: Nav 1.7 potency. Here is the method: as §1
(§4) Sodium Current Measurements on the PatchXpress 7000®:
(§5) To measure inactivated state block of sodium channels, test compounds were characterized in an automated PatchXpress® assay (Molecular Devices) using a double-pulse protocol on human Nav1.7 and Nav1.5 channels stably expressed in HEK 293 cells. Cells were held at a potential 20 mV negative to V0.5 inact. An 8000 ms pre-pulse 7 mV positive to V0.5 inact was given followed by a hyperpolarizing 2 ms pulse to −120 mV and a 20 ms test pulse to −20 mV. Protocol was applied to cells in the absence, presence of compound and after washout. The temperature of PatchXpress instruments was maintained at 22° C. The following recording solutions were used. Internal solution (mM): 30 CsCl, 5 HEPES, 10 EGTA, 120 CsF, 5 NaF, 2 MgCl2. External solution (mM): 120 NMDG, 40 NaCl, 1 KCl, 0.5 MgCl2, 5 HEPES, 2.7 CaCl2.

Experiment [4] addresses T2, human Nav1.5 channels stably expressed in HEK 293 cells. The description is as above. Conditions: PatchXpress technique. Here is the method:
as §1, §4, §5

pIC50: −log10 of the molar value.

T2 sequence (Q14524 whole entry): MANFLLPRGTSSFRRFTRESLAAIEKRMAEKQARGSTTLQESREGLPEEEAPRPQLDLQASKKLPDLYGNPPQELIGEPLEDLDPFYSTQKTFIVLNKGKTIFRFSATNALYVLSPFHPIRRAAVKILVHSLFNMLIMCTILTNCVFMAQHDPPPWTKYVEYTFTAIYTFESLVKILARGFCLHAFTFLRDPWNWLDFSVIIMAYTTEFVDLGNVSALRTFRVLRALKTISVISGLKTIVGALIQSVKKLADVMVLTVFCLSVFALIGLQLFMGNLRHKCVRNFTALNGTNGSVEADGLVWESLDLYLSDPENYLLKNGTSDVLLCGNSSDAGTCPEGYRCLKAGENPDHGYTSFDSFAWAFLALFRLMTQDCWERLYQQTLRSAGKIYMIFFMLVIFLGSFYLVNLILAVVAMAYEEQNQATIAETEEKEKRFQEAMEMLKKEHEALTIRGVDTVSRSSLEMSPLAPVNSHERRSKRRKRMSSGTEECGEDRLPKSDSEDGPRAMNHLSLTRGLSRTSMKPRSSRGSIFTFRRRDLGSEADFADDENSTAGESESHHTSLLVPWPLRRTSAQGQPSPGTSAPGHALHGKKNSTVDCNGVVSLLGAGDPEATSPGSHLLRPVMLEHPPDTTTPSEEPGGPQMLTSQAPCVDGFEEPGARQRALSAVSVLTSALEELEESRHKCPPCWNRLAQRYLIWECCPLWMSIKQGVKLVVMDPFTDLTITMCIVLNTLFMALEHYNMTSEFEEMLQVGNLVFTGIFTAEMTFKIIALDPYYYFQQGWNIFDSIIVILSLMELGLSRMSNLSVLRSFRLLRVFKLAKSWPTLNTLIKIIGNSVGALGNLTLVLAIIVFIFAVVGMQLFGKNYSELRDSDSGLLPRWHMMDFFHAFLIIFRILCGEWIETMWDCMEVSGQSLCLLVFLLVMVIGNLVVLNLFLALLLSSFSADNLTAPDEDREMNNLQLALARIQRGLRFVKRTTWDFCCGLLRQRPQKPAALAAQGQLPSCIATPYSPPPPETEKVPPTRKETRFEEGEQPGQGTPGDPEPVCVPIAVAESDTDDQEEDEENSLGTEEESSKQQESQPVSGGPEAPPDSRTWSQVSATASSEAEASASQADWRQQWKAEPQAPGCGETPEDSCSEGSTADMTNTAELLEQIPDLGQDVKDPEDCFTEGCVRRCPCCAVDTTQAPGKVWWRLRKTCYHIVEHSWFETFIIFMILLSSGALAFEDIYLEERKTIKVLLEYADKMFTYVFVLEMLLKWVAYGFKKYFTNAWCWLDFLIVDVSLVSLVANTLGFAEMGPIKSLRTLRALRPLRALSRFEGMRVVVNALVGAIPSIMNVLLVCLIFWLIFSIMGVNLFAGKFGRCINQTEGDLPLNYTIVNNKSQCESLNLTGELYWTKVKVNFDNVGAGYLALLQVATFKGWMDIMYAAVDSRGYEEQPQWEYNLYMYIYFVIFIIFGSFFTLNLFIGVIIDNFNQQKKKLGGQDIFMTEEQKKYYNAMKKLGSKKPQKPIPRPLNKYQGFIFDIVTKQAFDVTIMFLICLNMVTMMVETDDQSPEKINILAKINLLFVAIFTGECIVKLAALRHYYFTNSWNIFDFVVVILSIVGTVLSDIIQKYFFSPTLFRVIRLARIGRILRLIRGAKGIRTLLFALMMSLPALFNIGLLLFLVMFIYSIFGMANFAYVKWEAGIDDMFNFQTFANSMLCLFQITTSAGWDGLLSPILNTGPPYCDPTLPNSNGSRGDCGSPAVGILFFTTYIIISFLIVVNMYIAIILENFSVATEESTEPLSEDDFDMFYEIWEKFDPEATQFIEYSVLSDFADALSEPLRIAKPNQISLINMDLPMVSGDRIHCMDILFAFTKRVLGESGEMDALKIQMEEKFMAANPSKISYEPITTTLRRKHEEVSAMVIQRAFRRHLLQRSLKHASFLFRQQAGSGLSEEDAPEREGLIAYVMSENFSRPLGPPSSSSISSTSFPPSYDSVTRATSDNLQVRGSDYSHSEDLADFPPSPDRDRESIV
T1 sequence (Q15858 whole entry): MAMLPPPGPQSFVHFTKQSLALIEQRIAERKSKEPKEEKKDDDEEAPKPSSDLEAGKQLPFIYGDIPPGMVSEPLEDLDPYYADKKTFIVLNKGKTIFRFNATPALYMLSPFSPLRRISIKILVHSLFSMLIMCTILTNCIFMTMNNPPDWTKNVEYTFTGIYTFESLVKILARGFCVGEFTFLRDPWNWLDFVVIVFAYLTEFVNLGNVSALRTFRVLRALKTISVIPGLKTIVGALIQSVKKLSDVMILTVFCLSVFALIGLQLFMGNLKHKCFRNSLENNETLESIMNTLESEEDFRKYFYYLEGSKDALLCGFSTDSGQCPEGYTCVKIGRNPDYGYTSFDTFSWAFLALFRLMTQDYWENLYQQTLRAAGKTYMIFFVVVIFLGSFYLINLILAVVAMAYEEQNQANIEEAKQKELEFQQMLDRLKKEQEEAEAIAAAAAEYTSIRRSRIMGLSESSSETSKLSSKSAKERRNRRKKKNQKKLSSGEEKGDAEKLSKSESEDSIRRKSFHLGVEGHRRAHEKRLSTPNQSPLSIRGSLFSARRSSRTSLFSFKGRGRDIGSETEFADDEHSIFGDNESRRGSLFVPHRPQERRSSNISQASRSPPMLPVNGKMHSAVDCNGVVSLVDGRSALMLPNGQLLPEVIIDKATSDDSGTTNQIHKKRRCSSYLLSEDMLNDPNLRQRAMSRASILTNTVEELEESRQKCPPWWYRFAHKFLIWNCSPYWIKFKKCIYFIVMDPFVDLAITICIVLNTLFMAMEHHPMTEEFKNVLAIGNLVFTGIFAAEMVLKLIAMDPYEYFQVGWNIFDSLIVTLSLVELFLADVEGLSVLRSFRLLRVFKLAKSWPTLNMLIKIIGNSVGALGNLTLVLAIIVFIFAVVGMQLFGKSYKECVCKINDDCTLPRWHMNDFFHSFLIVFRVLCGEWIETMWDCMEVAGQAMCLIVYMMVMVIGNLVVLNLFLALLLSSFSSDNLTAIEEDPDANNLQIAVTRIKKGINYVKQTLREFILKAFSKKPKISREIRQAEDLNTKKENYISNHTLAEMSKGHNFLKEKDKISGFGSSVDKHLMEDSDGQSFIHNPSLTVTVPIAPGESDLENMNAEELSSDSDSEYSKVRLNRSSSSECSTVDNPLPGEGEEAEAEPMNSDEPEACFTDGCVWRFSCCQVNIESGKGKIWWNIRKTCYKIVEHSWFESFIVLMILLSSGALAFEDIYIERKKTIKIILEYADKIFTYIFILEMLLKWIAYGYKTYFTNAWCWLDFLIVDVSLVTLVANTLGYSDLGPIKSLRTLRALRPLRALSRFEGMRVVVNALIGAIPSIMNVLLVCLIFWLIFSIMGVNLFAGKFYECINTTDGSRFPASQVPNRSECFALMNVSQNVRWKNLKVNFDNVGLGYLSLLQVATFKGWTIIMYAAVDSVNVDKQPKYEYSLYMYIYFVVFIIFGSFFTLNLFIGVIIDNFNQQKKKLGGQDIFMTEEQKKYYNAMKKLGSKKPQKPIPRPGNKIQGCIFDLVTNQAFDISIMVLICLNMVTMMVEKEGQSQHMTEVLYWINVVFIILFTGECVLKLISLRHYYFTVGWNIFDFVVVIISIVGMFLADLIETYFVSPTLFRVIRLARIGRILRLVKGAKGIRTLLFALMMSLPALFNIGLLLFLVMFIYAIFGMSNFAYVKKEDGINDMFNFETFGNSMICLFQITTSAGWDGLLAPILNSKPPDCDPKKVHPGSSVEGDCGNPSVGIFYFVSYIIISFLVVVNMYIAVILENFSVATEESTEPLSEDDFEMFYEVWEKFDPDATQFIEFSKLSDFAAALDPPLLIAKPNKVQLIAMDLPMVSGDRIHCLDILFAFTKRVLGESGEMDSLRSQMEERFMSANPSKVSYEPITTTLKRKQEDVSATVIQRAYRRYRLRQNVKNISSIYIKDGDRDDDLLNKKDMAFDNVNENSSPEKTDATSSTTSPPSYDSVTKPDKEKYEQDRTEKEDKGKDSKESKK

In the case of `NC1CCc2cccc(Cn3ncc4cc(S(=O)(=O)Nc5ncns5)c(F)cc43)c2C1` (single isomer, unassigned) [Ex-13, (R or S)-1-((7-amino-5,6,7,8-tetrahydronaphthalen-1-yl)methyl)-6-fluoro-N-(1,2,4-thiadiazol-5-yl)-1H-indazole-5-sulfonamide], the values for the pIC50 in experiment [1] and in experiment [3] were 8.22 and 8.15, respectively. Also, the “Ratio 1.5:1.7 = Nav 1.5 potency (nM)/Nav1.7 potency (nM)” value (from here on “Ratio 1.5:1.7 = Nav 1.5 potency”) in experiment [2] stood at 5406; in experiment [4], 2275.
As to `NC1CCc2cccc(Cn3ncc4cc(S(=O)(=O)Nc5ncns5)c(F)cc43)c2C1` (single isomer, unassigned) [Ex-14, (S or R)-1-((7-amino-5,6,7,8-tetrahydronaphthalen-1-yl)methyl)-6-fluoro-N-(1,2,4-thiadiazol-5-yl)-1H-indazole-5-sulfonamide], the pIC50 in experiment [1] is 7.62; in experiment [3] it was 7.68. The “Ratio 1.5:1.7 = Nav 1.5 potency” value in experiment [2] came out at 1394; in experiment [4], 1480.
On to `O=S(=O)(Nc1ncns1)c1cc2cnn(Cc3cccc4c3CNCC4)c2cc1F` [Ex-1, 6-fluoro-1-((1,2,3,4-tetrahydroisoquinolin-8-yl)methyl)-N-(1,2,4-thiadiazol-5-yl)-1H-indazole-5-sulfonamide], for which the pIC50 in experiment [1] is 6.97; in experiment [3], 6.82. Besides, the “Ratio 1.5:1.7 = Nav 1.5 potency” value in experiment [2] came to 311; in experiment [4], 310.
Regarding `O=S(=O)(Nc1nccs1)c1cc2cnn(Cc3cccc4c3CNCC4)c2cc1F` [Ex-2, 6-fluoro-1-((1,2,3,4-tetrahydroisoquinolin-8-yl)methyl)-N-(thiazol-2-yl)-1H-indazole-5-sulfonamide], the pIC50 in experiment [1] is 7.60; in experiment [3], 7.70. In addition, the “Ratio 1.5:1.7 = Nav 1.5 potency” value in experiment [2] is given as 1200; in experiment [4], 2025.
For the molecule `O=S(=O)(Nc1ncc(Cl)s1)c1cc2cnn(Cc3cccc4c3CNCC4)c2cc1F` [Ex-3, N-(5-chlorothiazol-2-yl)-6-fluoro-1-((1,2,3,4-tetrahydroisoquinolin-8-yl)methyl)-1H-indazole-5-sulfonamide], the pIC50 in experiment [1] is 6.48; in experiment [3], 7.28. For the same molecule, the “Ratio 1.5:1.7 = Nav 1.5 potency” value is 91 in experiment [2] and 636 in experiment [4].
Take `O=S(=O)(Nc1cccc(F)n1)c1cc2cnn(Cc3cccc4c3CNCC4)c2cc1F` [Ex-4, 6-fluoro-N-(6-fluoropyridin-2-yl)-1-((1,2,3,4-tetrahydroisoquinolin-8-yl)methyl)-1H-indazole-5-sulfonamide]: the values for the pIC50 in experiment [1] and in experiment [3] were 6.28 and 6.07, respectively. Further, the “Ratio 1.5:1.7 = Nav 1.5 potency” value in experiment [2] is listed as 58; in experiment [4], 64.
In the same order, the values of `NC/C=C/c1ccccc1Cn1ncc2cc(S(=O)(=O)Nc3ncns3)c(F)cc21` [Ex-5, (E)-1-(2-(3-aminoprop-1-en-1-yl)benzyl)-6-fluoro-N-(1,2,4-thiadiazol-5-yl)-1H-indazole-5-sulfonamide] are 7.47, 7.27, 963 and 560.
Turning to `C[C@H](c1cccc2c1CNCC2)n1ncc2cc(S(=O)(=O)Nc3ncns3)c(F)cc21` [Ex-6, (R)-6-fluoro-1-(1-(1,2,3,4-tetrahydroisoquinolin-8-yl)ethyl)-N-(1,2,4-thiadiazol-5-yl)-1H-indazole-5-sulfonamide], the pIC50 is 7.68 in experiment [1] and 7.03 in experiment [3]. For the same molecule, the figures for the “Ratio 1.5:1.7 = Nav 1.5 potency” value in experiment [2] and in experiment [4] were 1066 and 320, respectively.
Turning to `O=S(=O)(Nc1ncns1)c1cc2cnn(Cc3ccccc3I)c2cc1F` [Ex-7, 6-fluoro-1-(2-iodobenzyl)-N-1,2,4-thiadiazol-5-yl-1H-indazole-5-sulfonamide], in experiment [1], the pIC50 is 6.47. For the same molecule, the “Ratio 1.5:1.7 = Nav 1.5 potency” value in experiment [2] is listed as 19.
For the molecule `CN(C)CCNC(=O)c1cccc(-c2ccccc2Cn2ncc3cc(S(=O)(=O)Nc4ncns4)c(F)cc32)c1` [Ex-8, N-[2-(dimethylamino)ethyl]-2′-{[6-fluoro-5-(1,2,4-thiadiazol-5-ylsulfamoyl)-1H-indazol-1-yl]methyl}biphenyl-3-carboxamide], the pIC50 in experiment [1] is 6.07; in experiment [3] it was 5.95. For the same molecule, the “Ratio 1.5:1.7 = Nav 1.5 potency” value is 39 in experiment [2] and 27 in experiment [4].
With `C[C@H](c1ccccc1)n1ncc2cc(S(=O)(=O)Nc3ncns3)c(F)cc21` [Ex-9, 6-fluoro-1-[(1R)-1-phenylethyl]-N-1,2,4-thiadiazol-5-yl-1H-indazole-5-sulfonamide], the pIC50 in experiment [1] was 5.98; in experiment [3], 6.39. Moreover, the “Ratio 1.5:1.7 = Nav 1.5 potency” value in experiment [2] turned out to be 27; in experiment [4], 65.
Consider `CN(C)CCNC(=O)c1cccc(-c2cc(Cl)ccc2Cn2ncc3cc(S(=O)(=O)Nc4ncns4)ccc32)c1` [Ex-20, 5′-chloro-N-[2-(dimethylamino)ethyl]-2′-{[5-(1,2,4-thiadiazol-5-ylsulfamoyl)-1H-indazol-1-yl]methyl}biphenyl-3-carboxamide], for which the pIC50 in experiment [1] is 6.02. Moreover, in experiment [2], the “Ratio 1.5:1.7 = Nav 1.5 potency” value is on record as 34.
With `O=S(=O)(Nc1ncns1)c1ccc2c(cnn2Cc2ccc(Cl)cc2C2=CC3CCC(C2)N3)c1` (stereo not shown) [Ex-21, 1-[2-(8-azabicyclo[3.2.1]oct-2-en-3-yl)-4-chlorobenzyl]-N-1,2,4-thiadiazol-5-yl-1H-indazole-5-sulfonamide], the pIC50 in experiment [1] was 5.90. Further, the “Ratio 1.5:1.7 = Nav 1.5 potency” value in experiment [2] turned out to be 26.
For the molecule `C[C@H](c1cccc2c1CNCC2)n1cc2cc(S(=O)(=O)Nc3ncc(Cl)s3)c(F)cc2n1` [Ex-55, N-(5-chloro-1,3-thiazol-2-yl)-6-fluoro-2-[(1R)-1-(1,2,3,4-tetrahydro-isoquinolin-8-yl)ethyl]-2H-indazole-5-sulfonamide], the pIC50 in experiment [3] was 6.95. In experiment [4], the “Ratio 1.5:1.7 = Nav 1.5 potency” value is 152.
In the same order, the values of `C[C@H](c1ccccc1C#CCN)n1ncc2cc(S(=O)(=O)Nc3ncc(Cl)s3)c(F)cc21` [Ex-56, 1-{(1R)-1-[2-(3-aminoprop-1-yn-1-yl)phenyl]ethyl}-N-(5-chloro-1,3-thiazol-2-yl)-6-fluoro-1H-indazole-5-sulfonamide] are 6.61 and 39.
As for `Cc1cc2c(cnn2[C@H](C)c2cccc3c2CNCC3)cc1S(=O)(=O)Nc1cccc(F)n1` [Ex-60, N-(6-fluoropyridin-2-yl)-6-methyl-1-[(1R)-1-(1,2,3,4-tetrahydroisoquinolin-8-yl)ethyl]-1H-indazole-5-sulfonamide], the pIC50 in experiment [3] was 7.24. Moreover, the “Ratio 1.5:1.7 = Nav 1.5 potency” value in experiment [4] is given as 457.
`Cc1cc2c(cnn2Cc2cccc3c2CC(N)CC3)cc1S(=O)(=O)Nc1cccc(F)n1` (stereo not shown) [Ex-61, 1-[(7-amino-5,6,7,8-tetrahydronaphthalen-1-yl)methyl]-N-(6-fluoropyridin-2-yl)-6-methyl-1H-indazole-5-sulfonamide]: in experiment [3], the pIC50 was 7.21. The “Ratio 1.5:1.7 = Nav 1.5 potency” value in experiment [4] was 171.
For the molecule `Cc1cc2c(cnn2Cc2cccc3c2CC(N)CC3)cc1S(=O)(=O)Nc1nccs1` (stereo not shown) [Ex-62, 1-[(7-amino-5,6,7,8-tetrahydronaphthalen-1-yl)methyl]-6-methyl-N-1,3-thiazol-2-yl-1H-indazole-5-sulfonamide], in experiment [3], the pIC50 is 7.64. The “Ratio 1.5:1.7 = Nav 1.5 potency” value in experiment [4] stood at 762.
Consider `NC/C=C/c1ccccc1Cn1ncc2cc(S(=O)(=O)Nc3ncns3)cc(Cl)c21` [Ex-63, 1-{2-[(1E)-3-aminoprop-1-en-1-yl]benzyl}-7-chloro-N-1,2,4-thiadiazol-5-yl-1H-indazole-5-sulfonamide], for which the pIC50 in experiment [1] was 5.76. Moreover, the “Ratio 1.5:1.7 = Nav 1.5 potency” value in experiment [2] was over 19.
